Data published in the supplement of paper PMC13207355.

What was measured:
Conditions in all cases: exposure time: 72 h
E57 [1] = patient-derived glioblastoma stem cells of mesenchymal subtype; experiment: surviving fraction (nuclei count normalised to DMSO); higher = more cells surviving (less toxic)
E28 [2] = patient-derived glioblastoma stem cells of classical subtype; experiment: as above
E31 [3] = patient-derived glioblastoma stem cells of proneural subtype; experiment: as above
FT3469 [4] = normal neural stem cell line; experiment: as above
E21 [5] = patient-derived glioblastoma stem cells of mesenchymal subtype; experiment: as above
E34 [6] = patient-derived glioblastoma stem cells of proneural subtype; experiment: as above
E13 [7] = patient-derived glioblastoma stem cells of classical subtype; experiment: as above
E57 [8] = experiment: phenotypic distance (Euclidean, principal components) from DMSO controls (arbitrary units); higher = stronger morphological change
E28 [9] = experiment: as above
E31 [10] = experiment: as above
FT3469 [11] = experiment: as above
E21 [12] = experiment: as above
E34 [13] = experiment: as above
E13 [14] = experiment: as above
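Wherever phenotypic distance (Euclidean, principal components) from DMSO controls is given: cell Painting imaging in 384-well plates, CellProfiler features reduced to at least 20 principal components, Euclidean distance versus same-plate DMSO vehicle wells (0.1% v/v), median over six images per well.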
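Wherever surviving fraction (nuclei count normalised to DMSO) is given: nuclei counted by high-content imaging of Hoechst-stained cells in laminin-coated 384-well plates, relative to 0.1% DMSO vehicle wells, with staurosporine as cell-death control.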

Cc1cc(CN2CCN(c3c(Br)cnc4nc(-c5ccc(N6CCN(C)CC6)cc5)[nH]c34)CC2)no1
surviving fraction (E57 [1]; 4.1 nM): 0.974
surviving fraction (E57 [1]; 12.3 nM): 0.888
surviving fraction (E57 [1]; 37 nM): 0.906
surviving fraction (E57 [1]; 111.1 nM): 0.871
surviving fraction (E57 [1]; 333.3 nM): 0.651
surviving fraction (E57 [1]; 1000 nM): 0.325
surviving fraction (E57 [1]; 3000 nM): 0.0382
surviving fraction (E28 [2]; 4.1 nM): 1.15
surviving fraction (E28 [2]; 12.3 nM): 0.888
surviving fraction (E28 [2]; 37 nM): 1.09
surviving fraction (E28 [2]; 111.1 nM): 0.916
surviving fraction (E28 [2]; 333.3 nM): 0.806
surviving fraction (E28 [2]; 1000 nM): 0.392
surviving fraction (E28 [2]; 3000 nM): 0.163
surviving fraction (E31 [3]; 4.1 nM): 1.02
surviving fraction (E31 [3]; 12.3 nM): 0.782
surviving fraction (E31 [3]; 37 nM): 0.994
surviving fraction (E31 [3]; 111.1 nM): 0.867
surviving fraction (E31 [3]; 333.3 nM): 0.511
surviving fraction (E31 [3]; 1000 nM): 0.334
surviving fraction (E31 [3]; 3000 nM): 0.00629
surviving fraction (FT3469 [4]; 4.1 nM): 0.662
surviving fraction (FT3469 [4]; 12.3 nM): 0.758
surviving fraction (FT3469 [4]; 37 nM): 0.843
surviving fraction (FT3469 [4]; 111.1 nM): 0.737
surviving fraction (FT3469 [4]; 333.3 nM): 0.705
surviving fraction (FT3469 [4]; 1000 nM): 0.676
surviving fraction (FT3469 [4]; 3000 nM): 0.37
surviving fraction (E21 [5]; 4.1 nM): 0.936
surviving fraction (E21 [5]; 12.3 nM): 0.864
surviving fraction (E21 [5]; 37 nM): 0.9
surviving fraction (E21 [5]; 111.1 nM): 0.917
surviving fraction (E21 [5]; 333.3 nM): 0.6
surviving fraction (E21 [5]; 1000 nM): 0.387
surviving fraction (E21 [5]; 3000 nM): 0.0348
surviving fraction (E34 [6]; 4.1 nM): 0.839
surviving fraction (E34 [6]; 12.3 nM): 0.842
surviving fraction (E34 [6]; 37 nM): 1.09
surviving fraction (E34 [6]; 111.1 nM): 0.872
surviving fraction (E34 [6]; 333.3 nM): 0.827
surviving fraction (E34 [6]; 1000 nM): 0.618
surviving fraction (E34 [6]; 3000 nM): 0.26
surviving fraction (E13 [7]; 4.1 nM): 0.995
surviving fraction (E13 [7]; 12.3 nM): 0.966
surviving fraction (E13 [7]; 37 nM): 0.963
surviving fraction (E13 [7]; 111.1 nM): 0.91
surviving fraction (E13 [7]; 333.3 nM): 0.676
surviving fraction (E13 [7]; 1000 nM): 0.528
surviving fraction (E13 [7]; 3000 nM): 0.0986
phenotypic distance (E57 [8]; 4.1 nM): 0.499
phenotypic distance (E57 [8]; 12.3 nM): 0.684
phenotypic distance (E57 [8]; 37 nM): 0.82
phenotypic distance (E57 [8]; 111.1 nM): 1.16
phenotypic distance (E57 [8]; 333.3 nM): 5.64
phenotypic distance (E57 [8]; 1000 nM): 8.26
phenotypic distance (E57 [8]; 3000 nM): 9.56
phenotypic distance (E28 [9]; 4.1 nM): 1.13
phenotypic distance (E28 [9]; 12.3 nM): 1.52
phenotypic distance (E28 [9]; 37 nM): 1.01
phenotypic distance (E28 [9]; 111.1 nM): 1.29
phenotypic distance (E28 [9]; 333.3 nM): 1.23
phenotypic distance (E28 [9]; 1000 nM): 2.97
phenotypic distance (E28 [9]; 3000 nM): 5.6
phenotypic distance (E31 [10]; 4.1 nM): 0.99
phenotypic distance (E31 [10]; 12.3 nM): 1.9
phenotypic distance (E31 [10]; 37 nM): 1.97
phenotypic distance (E31 [10]; 111.1 nM): 0.784
phenotypic distance (E31 [10]; 333.3 nM): 1.62
phenotypic distance (E31 [10]; 1000 nM): 3.36
phenotypic distance (E31 [10]; 3000 nM): 10.2
phenotypic distance (FT3469 [11]; 4.1 nM): 1.38
phenotypic distance (FT3469 [11]; 12.3 nM): 0.929
phenotypic distance (FT3469 [11]; 37 nM): 1.76
phenotypic distance (FT3469 [11]; 111.1 nM): 1.44
phenotypic distance (FT3469 [11]; 333.3 nM): 1.88
phenotypic distance (FT3469 [11]; 1000 nM): 2.37
phenotypic distance (FT3469 [11]; 3000 nM): 9.55
phenotypic distance (E21 [12]; 4.1 nM): 1.03
phenotypic distance (E21 [12]; 12.3 nM): 0.842
phenotypic distance (E21 [12]; 37 nM): 0.688
phenotypic distance (E21 [12]; 111.1 nM): 0.989
phenotypic distance (E21 [12]; 333.3 nM): 2.77
phenotypic distance (E21 [12]; 1000 nM): 5.77
phenotypic distance (E21 [12]; 3000 nM): 7.03
phenotypic distance (E34 [13]; 4.1 nM): 1.02
phenotypic distance (E34 [13]; 12.3 nM): 1.13
phenotypic distance (E34 [13]; 37 nM): 0.858
phenotypic distance (E34 [13]; 111.1 nM): 0.728
phenotypic distance (E34 [13]; 333.3 nM): 2.67
phenotypic distance (E34 [13]; 1000 nM): 2.84
phenotypic distance (E34 [13]; 3000 nM): 8.59
phenotypic distance (E13 [14]; 4.1 nM): 0.33
phenotypic distance (E13 [14]; 12.3 nM): 0.336
phenotypic distance (E13 [14]; 37 nM): 0.51
phenotypic distance (E13 [14]; 111.1 nM): 0.456
phenotypic distance (E13 [14]; 333.3 nM): 1.86
phenotypic distance (E13 [14]; 1000 nM): 4.59
phenotypic distance (E13 [14]; 3000 nM): 13.4

O=C(CCBr)N1CCN(C(=O)CCBr)CC1 [Pipobroman]
surviving fraction (E57 [1]; 4.1 nM): 1.05
surviving fraction (E57 [1]; 12.3 nM): 1.02
surviving fraction (E57 [1]; 37 nM): 1.06
surviving fraction (E57 [1]; 111.1 nM): 1.07
surviving fraction (E57 [1]; 333.3 nM): 1.07
surviving fraction (E57 [1]; 1000 nM): 0.958
surviving fraction (E57 [1]; 3000 nM): 0.816
surviving fraction (E28 [2]; 4.1 nM): 0.961
surviving fraction (E28 [2]; 12.3 nM): 1.13
surviving fraction (E28 [2]; 37 nM): 0.966
surviving fraction (E28 [2]; 111.1 nM): 0.954
surviving fraction (E28 [2]; 333.3 nM): 0.979
surviving fraction (E28 [2]; 1000 nM): 0.931
surviving fraction (E28 [2]; 3000 nM): 0.713
surviving fraction (E31 [3]; 4.1 nM): 0.99
surviving fraction (E31 [3]; 12.3 nM): 0.958
surviving fraction (E31 [3]; 37 nM): 0.924
surviving fraction (E31 [3]; 111.1 nM): 0.976
surviving fraction (E31 [3]; 333.3 nM): 0.859
surviving fraction (E31 [3]; 1000 nM): 0.759
surviving fraction (E31 [3]; 3000 nM): 0.716
surviving fraction (FT3469 [4]; 4.1 nM): 1.12
surviving fraction (FT3469 [4]; 12.3 nM): 1.08
surviving fraction (FT3469 [4]; 37 nM): 0.946
surviving fraction (FT3469 [4]; 111.1 nM): 1
surviving fraction (FT3469 [4]; 333.3 nM): 1.05
surviving fraction (FT3469 [4]; 1000 nM): 0.961
surviving fraction (FT3469 [4]; 3000 nM): 0.86
surviving fraction (E21 [5]; 4.1 nM): 1.13
surviving fraction (E21 [5]; 12.3 nM): 0.912
surviving fraction (E21 [5]; 37 nM): 1.01
surviving fraction (E21 [5]; 111.1 nM): 0.966
surviving fraction (E21 [5]; 333.3 nM): 1.05
surviving fraction (E21 [5]; 1000 nM): 0.836
surviving fraction (E21 [5]; 3000 nM): 0.811
surviving fraction (E34 [6]; 4.1 nM): 1.03
surviving fraction (E34 [6]; 12.3 nM): 0.865
surviving fraction (E34 [6]; 37 nM): 1.08
surviving fraction (E34 [6]; 111.1 nM): 1.06
surviving fraction (E34 [6]; 333.3 nM): 1.01
surviving fraction (E34 [6]; 1000 nM): 0.892
surviving fraction (E34 [6]; 3000 nM): 1.1
surviving fraction (E13 [7]; 4.1 nM): 0.929
surviving fraction (E13 [7]; 12.3 nM): 0.984
surviving fraction (E13 [7]; 37 nM): 1.02
surviving fraction (E13 [7]; 111.1 nM): 0.921
surviving fraction (E13 [7]; 333.3 nM): 0.977
surviving fraction (E13 [7]; 1000 nM): 0.982
surviving fraction (E13 [7]; 3000 nM): 0.98
phenotypic distance (E57 [8]; 4.1 nM): 0.542
phenotypic distance (E57 [8]; 12.3 nM): 0.868
phenotypic distance (E57 [8]; 37 nM): 0.587
phenotypic distance (E57 [8]; 111.1 nM): 0.428
phenotypic distance (E57 [8]; 333.3 nM): 0.404
phenotypic distance (E57 [8]; 1000 nM): 0.464
phenotypic distance (E57 [8]; 3000 nM): 1.79
phenotypic distance (E28 [9]; 4.1 nM): 0.503
phenotypic distance (E28 [9]; 12.3 nM): 0.763
phenotypic distance (E28 [9]; 37 nM): 0.907
phenotypic distance (E28 [9]; 111.1 nM): 0.719
phenotypic distance (E28 [9]; 333.3 nM): 0.82
phenotypic distance (E28 [9]; 1000 nM): 0.794
phenotypic distance (E28 [9]; 3000 nM): 1.56
phenotypic distance (E31 [10]; 4.1 nM): 0.424
phenotypic distance (E31 [10]; 12.3 nM): 0.596
phenotypic distance (E31 [10]; 37 nM): 0.531
phenotypic distance (E31 [10]; 111.1 nM): 0.433
phenotypic distance (E31 [10]; 333.3 nM): 0.574
phenotypic distance (E31 [10]; 1000 nM): 1.19
phenotypic distance (E31 [10]; 3000 nM): 1.45
phenotypic distance (FT3469 [11]; 4.1 nM): 0.541
phenotypic distance (FT3469 [11]; 12.3 nM): 0.755
phenotypic distance (FT3469 [11]; 37 nM): 0.771
phenotypic distance (FT3469 [11]; 111.1 nM): 0.734
phenotypic distance (FT3469 [11]; 333.3 nM): 0.615
phenotypic distance (FT3469 [11]; 1000 nM): 1.02
phenotypic distance (FT3469 [11]; 3000 nM): 1.65
phenotypic distance (E21 [12]; 4.1 nM): 0.8
phenotypic distance (E21 [12]; 12.3 nM): 0.777
phenotypic distance (E21 [12]; 37 nM): 0.578
phenotypic distance (E21 [12]; 111.1 nM): 0.528
phenotypic distance (E21 [12]; 333.3 nM): 0.76
phenotypic distance (E21 [12]; 1000 nM): 0.889
phenotypic distance (E21 [12]; 3000 nM): 2.2
phenotypic distance (E34 [13]; 4.1 nM): 0.724
phenotypic distance (E34 [13]; 12.3 nM): 0.45
phenotypic distance (E34 [13]; 37 nM): 0.596
phenotypic distance (E34 [13]; 111.1 nM): 0.698
phenotypic distance (E34 [13]; 333.3 nM): 0.871
phenotypic distance (E34 [13]; 1000 nM): 0.646
phenotypic distance (E34 [13]; 3000 nM): 0.982
phenotypic distance (E13 [14]; 4.1 nM): 0.472
phenotypic distance (E13 [14]; 12.3 nM): 0.7
phenotypic distance (E13 [14]; 37 nM): 0.541
phenotypic distance (E13 [14]; 111.1 nM): 0.407
phenotypic distance (E13 [14]; 333.3 nM): 0.764
phenotypic distance (E13 [14]; 1000 nM): 0.638
phenotypic distance (E13 [14]; 3000 nM): 0.745
